GI50 data for 22 compounds are collected here from patent publication US20260062422A1 (Halda Therapeutics OpCo, Inc., priority 2022, published 2026).

Test [1] has as its system T-Rex 293 cell line SC3 cells having increased expression of androgen receptor protein due to exposure to doxycycline. The test is described as follows: Cellular growth inhibition, T-Rex 293 SC3 cells with doxycycline (androgen receptor induced), CellTiter-Glo. Type of test: cell-based. Conditions: 72 h, T-Rex 293 SC3 cells with 10 ng/mL doxycycline (increased androgen receptor expression). Summed up: (§1)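 Growth inhibition was compared in a T-Rex 293 clone with and without doxycycline (10 ng/mL)-driven androgen receptor overexpression. Compounds were applied for 72 h in hormone-depleted serum, and GI50 came from four-parameter curves of CellTiter-Glo signal.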
(In ATP-based viability assays light output follows the ATP content of the culture.)

The next test deals with VCaP cells. Kind of test: Cellular growth inhibition assay for VCaP cells, CellTiter-Glo. Type of test: cell-based, human. Particulars: Homo sapiens, VCaP, 72 h, 72 hours treatment, CellTiter-Glo 2.0. Summed up:
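GI50 values come from four-parameter curve fits of luminescence data normalized to a zero baseline. Compound, in medium with 0.5% DMSO, was added one day after plating and left for 72 h before CellTiter-Glo 2.0 addition.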

The subject of test [2] is T-Rex 293 cell line SC3 cells lacking increased expression of androgen receptor protein. The test is described as follows: Cellular growth inhibition, T-Rex 293 SC3 cells without doxycycline, CellTiter-Glo. Type of test: cell-based. Particulars: 72 h, T-Rex 293 SC3 cells not exposed to doxycycline, CellTiter-Glo 2.0. In a few lines: as §1
In another test the test system is T47D cells. Kind of test: Cellular growth inhibition assay for T47D cells, CellTiter-Glo. Type of test: cell-based, human. Conditions: Homo sapiens, T47D, 72 h, 72 hours treatment, CellTiter-Glo 2.0 cell viability. In a few lines: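 Growth inhibition as GI50, fitted with four parameters to CellTiter-Glo luminescence after 72 h of compound exposure (0.5% DMSO). Cells were T47D, grown in insulin-supplemented (0.2 units/mL) DMEM with 10% FBS and treated one day post-seeding.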

The GI50 is the concentration giving 50% growth inhibition. Higher therefore signals lower sensitivity of the cells. As for `Cc1sc2c(c1C)C(c1ccc(OC3CC4(CCN(c5ncc(C(=O)N[C@H]6C(C)(C)[C@H](Oc7ccc(C#N)c(Cl)c7)C6(C)C)cn5)CC4)C3)cc1)=N[C@@H](Cc1nnn(C)n1)c1nnc(C)n1-2` [Compound I-218, N-[3-(3-chloro-4-cyano-phenoxy)-2,2,4,4-tetramethyl-cyclobutyl]-2-[2-[4-[(9S)-4,5,13-trimethyl-9-[(2-methyltetrazol-5-yl)methyl]-3-thia-1,8,11,12-tetrazatricyclo[8.3.0.02,6]trideca-2(6),4,7,10,12-pentaen-7-yl]phenoxy]-7-azaspiro[3.5]nonan-7-yl]pyrimidine-5-carboxamide], the 50% growth inhibitory concentration (GI50) in test [1] was less than 500 nM; with VCaP cells, less than 500 nM; in test [2], greater than 3000 nM; with T47D cells, less than 500 nM.

Consider `Cc1sc2c(c1C)C(c1ccc([C@@H]3CC[C@]4(C3)CN(c3ncc(C(=O)N[C@H]5C(C)(C)[C@H](Oc6ccc(C#N)c(Cl)c6)C5(C)C)cn3)CCO4)cc1)=N[C@@H](Cc1ncco1)c1nnc(C)n1-2` [Compound I-405], for which the GI50 in test [1] was less than 500 nM; in the test on VCaP cells it was less than 500 nM; in test [2], 500 to 1500 nM; in the test on T47D cells, less than 500 nM.

For `Cc1sc2c(c1C)C(c1ccc(-n3ncc(C4CCN(c5ncc(C(=O)N[C@H]6C(C)(C)[C@H](Oc7ccc(C#N)c(Cl)c7)C6(C)C)cn5)CC4)n3)cc1)=N[C@@H](Cc1ncco1)c1nnc(C)n1-2` [Compound I-430], the GI50 (in test [1]; with VCaP cells; in test [2]; in the test with T47D cells) was less than 500 nM each time.

`Cc1sc2c(c1C)C(c1ccc(O[C@H]3CCCN(c4ncc(C(=O)N[C@H]5C(C)(C)[C@H](Oc6ccc(C#N)c(Cl)c6)C5(C)C)cn4)C3)cc1)=N[C@@H](Cc1ncco1)c1nnc(C)n1-2` [Compound I-253]: the GI50 in test [1] was less than 500 nM; in the test with VCaP cells it was less than 500 nM; in test [2] it was less than 500 nM; in the test on T47D cells it was 500 to 1500 nM.

For `Cc1sc2c(c1C)C(c1ccc(CN3CC4(C3)CN(c3ncc(C(=O)N[C@H]5C(C)(C)[C@H](Oc6ccc(C#N)c(Cl)c6)C5(C)C)cn3)CCO4)cc1)=NC(Cc1ncco1)c1nnc(C)n1-2` (stereo partly shown) [Compound I-139], the GI50 (in test [1]; in the test on VCaP cells; in test [2]; in the test on T47D cells) was less than 500 nM throughout.

With `Cc1sc2c(c1C)C(c1ccc(CC[C@@H]3CC[C@]4(CCCN(c5ncc(C(=O)N[C@H]6C(C)(C)[C@H](Oc7ccc(C#N)c(Cl)c7)C6(C)C)cn5)C4)C3)cc1)=N[C@@H](Cc1ncco1)c1nnc(C)n1-2` [Compound I-250], the GI50 in test [1] was less than 500 nM; in the test with VCaP cells it was less than 500 nM; in test [2] it was greater than 3000 nM; in the test with T47D cells it was less than 500 nM.

Take `Cc1sc2c(c1C)C(c1ccc(CCN3CC[C@]4(C3)CN(c3ncc(C(=O)N[C@H]5C(C)(C)[C@H](Oc6ccc(C#N)c(Cl)c6)C5(C)C)cn3)CCO4)cc1)=N[C@@H](Cc1ncco1)c1nnc(C)n1-2` [Compound I-242]: the GI50 (in test [1]; with VCaP cells; in test [2]; in the test on T47D cells) was less than 500 nM in each case.

In the case of `Cc1sc2c(c1C)C(c1ccc(N3C[C@@]4(F)CN(c5ncc(C(=O)N[C@H]6C(C)(C)[C@H](Oc7ccc(C#N)c(Cl)c7)C6(C)C)cn5)C[C@@]4(F)C3)cc1)=N[C@@H](C)c1nnc(C)n1-2` [Compound I-587], the GI50 in test [1] is less than 500 nM; in the test on VCaP cells it was less than 500 nM; in test [2] it was greater than 3000 nM; in the test on T47D cells it was less than 500 nM.

Regarding `CC[C@@H]1N=C(c2ccc(CC3CC4(CCN(c5ncc(C(=O)N[C@H]6C(C)(C)[C@H](Oc7ccc(C#N)c(Cl)c7)C6(C)C)cn5)CC4)C3)cc2)c2c(sc(C)c2C)-n2c(C)nnc21` [Compound I-596], the GI50 was less than 500 nM in test [1], less than 500 nM with VCaP cells, greater than 3000 nM in test [2] and greater than 3000 nM with T47D cells.

With `Cc1sc2c(c1C)C(c1ccc(CNC(=O)NCc3ncc(C(=O)N[C@H]4C(C)(C)[C@H](Oc5ccc(C#N)c(Cl)c5)C4(C)C)cn3)cc1)=N[C@@H](Cc1ncco1)c1nnc(C)n1-2` [Compound I-326], the GI50 in test [1] is 500 to 1500 nM; with VCaP cells, 500 to 1500 nM; in test [2] it was greater than 3000 nM; with T47D cells, 1500 to 3000 nM.

Consider `COCC[C@@H]1N=C(c2ccc(CC3CC4(CCN(c5ccc(C(=O)N[C@H]6C(C)(C)[C@H](Oc7ccc(C#N)c(Cl)c7)C6(C)C)cn5)CC4)C3)cc2)c2c(sc(C)c2C)-n2c(C)nnc21` [Compound I-599], for which the GI50 in test [1] is less than 500 nM; in the test with VCaP cells, less than 500 nM; in test [2] it was greater than 3000 nM; with T47D cells it was less than 500 nM.

`Cc1sc2c(c1C)C(c1ccc(OC[C@H]3C[C@@]4(CCCN(c5ncc(C(=O)N[C@H]6C(C)(C)[C@H](Oc7ccc(C#N)c(Cl)c7)C6(C)C)cn5)C4)C3)cc1)=N[C@@H](Cc1ncco1)c1nnc(C)n1-2` [Compound I-234]: the GI50 in test [1] is less than 500 nM; in the test on VCaP cells it was less than 500 nM; in test [2] it was 500 to 1500 nM; in the test on T47D cells, less than 500 nM.

Regarding `CC[C@@H]1N=C(c2ccc(CC3CC4(CCN(c5cnc(C(=O)N[C@H]6C(C)(C)[C@H](Oc7ccc(C#N)c(Cl)c7)C6(C)C)cn5)CC4)C3)cc2)c2c(sc(C)c2C)-n2c(C)nnc21` [Compound I-597], the GI50 in test [1] was greater than 3000 nM; with VCaP cells, less than 500 nM; in test [2], greater than 3000 nM; in the test with T47D cells it was less than 500 nM.

On to `Cc1sc2c(c1C)C(c1ccc(C(=O)N3CCN(C(=O)c4ncc(C(=O)N[C@H]5C(C)(C)[C@H](Oc6ccc(C#N)c(Cl)c6)C5(C)C)cn4)CC3)cc1)=N[C@H](Cc1ncco1)c1nnc(C)n1-2` [Compound I-286], for which the GI50 in test [1] was 500 to 1500 nM; in the test on VCaP cells it was greater than 3000 nM; in test [2], greater than 3000 nM; with T47D cells, greater than 3000 nM.

For the compound `CCNC(=O)C[C@@H]1N=C(c2ccc(OC3CN(CC4CCN(c5ncc(C(=O)N[C@H]6C(C)(C)[C@H](Oc7ccc(C#N)c(Cl)c7)C6(C)C)cn5)CC4)C3)cc2)c2c(sc(C)c2C)-n2c(C)nnc21` [Compound I-79], the GI50 was less than 500 nM in test [1], less than 500 nM in the test with VCaP cells, 500 to 1500 nM in test [2] and less than 500 nM with T47D cells.

On to `CCNC(=O)C[C@@H]1N=C(c2ccc(CCCOC3CCN(c4ncc(C(=O)N[C@H]5C(C)(C)[C@H](Oc6ccc(C#N)c(Cl)c6)C5(C)C)cn4)CC3)cc2)c2c(sc(C)c2C)-n2c(C)nnc21` [Compound I-87, N-[3-(3-chloro-4-cyano-phenoxy)-2,2,4,4-tetramethyl-cyclobutyl]-2-[4-[3-[4-[(9S)-9-[2-(ethylamino)-2-oxo-ethyl]-4,5,13-trimethyl-3-thia-1,8,11,12-tetrazatricyclo[8.3.0.02,6]trideca-2(6),4,7,10,12-pentaen-7-yl]phenyl]propoxy]-1-piperidyl]pyrimidine-5-carboxamide], for which the GI50 (in test [1]; in the test with VCaP cells; in test [2]; in the test with T47D cells) was less than 500 nM each time.

With `Cc1sc2c(c1C)C(c1ccc([C@H]3C[C@H](C4CCN(c5ncc(C(=O)N[C@H]6C(C)(C)[C@H](Oc7ccc(C#N)c(Cl)c7)C6(C)C)cn5)CC4)C3)cc1)=N[C@@H](Cc1ncco1)c1nnc(C)n1-2` [Compound I-399], the GI50 in test [1] was less than 500 nM; with VCaP cells, 500 to 1500 nM; in test [2], greater than 3000 nM; with T47D cells it was less than 500 nM.

As to `Cc1sc2c(c1C)C(c1ccc(-c3csc(OC4CCN(c5ncc(C(=O)N[C@H]6C(C)(C)[C@H](Oc7ccc(C#N)c(Cl)c7)C6(C)C)cn5)CC4)n3)cc1)=N[C@@H](Cc1ncco1)c1nnc(C)n1-2` [Compound I-408], the GI50 is less than 500 nM in test [1], 500 to 1500 nM in the test with VCaP cells, greater than 3000 nM in test [2] and less than 500 nM with T47D cells.

On to `Cc1sc2c(c1C)C(c1ccc(C#CC3CC4(C3)CN(c3ncc(C(=O)N[C@H]5C(C)(C)[C@H](Oc6ccc(C#N)c(Cl)c6)C5(C)C)cn3)C4)cc1)=NC1(CC1)c1nnc(C)n1-2` [Compound I-462], for which the GI50 in test [1] was less than 500 nM; in the test on VCaP cells it was less than 500 nM; in test [2], 500 to 1500 nM; in the test with T47D cells it was 500 to 1500 nM.

Consider `Cc1sc2c(c1C)C(c1ccc(N3CCC(CNC(=O)c4ncc(C(=O)N[C@H]5C(C)(C)[C@H](Oc6ccc(C#N)c(Cl)c6)C5(C)C)cn4)CC3)cc1)C[C@@H](Cc1ncco1)c1nnc(C)n1-2` (stereo partly shown) [Compound I-276], for which the GI50 in test [1] was greater than 3000 nM; in the test with VCaP cells, 1500 to 3000 nM; in test [2], greater than 3000 nM; with T47D cells, greater than 3000 nM.

Regarding `Cc1sc2c(c1C)C(c1ccc(OC3CC4(CCN(c5ncc(C(=O)N[C@H]6C(C)(C)[C@H](Oc7ccc(C#N)c(Cl)c7)C6(C)C)cn5)CC4)C3)c(F)c1)=N[C@@H](Cc1ncco1)c1nnc(C)n1-2` [Compound I-456], the GI50 was less than 500 nM in test [1], 1500 to 3000 nM in the test with VCaP cells, greater than 3000 nM in test [2] and greater than 3000 nM in the test on T47D cells.

Turning to `Cc1sc2c(c1C)C(c1ccc(OC[C@H]3C[C@]4(CCCN(c5ncc(C(=O)N[C@H]6C(C)(C)[C@H](Oc7ccc(C#N)c(Cl)c7)C6(C)C)cn5)C4)C3)cc1)=N[C@@H](C)c1nnc(C)n1-2` [Compound I-350], the GI50 is less than 500 nM in test [1], less than 500 nM in the test on VCaP cells, greater than 3000 nM in test [2] and greater than 3000 nM with T47D cells.
